Measured values: US20250002467A1, “DESIGN, SYNTHESIS AND MECHANISMS OF ANTICANCER ACTIVITY OF NEW ACETYLATED 5-AMINOSALICYLATE-THIAZOLINONE HYBRID DERIVATIVES” (University of Sharjah, priority 2023, published 2025)

Legend:
Format in all cases: cell-based
MCF7 cells [1] = test: Transcriptomic analysis of HH33-treated MCF7 cells
Description: RNA extraction was carried out followed by cDNA synthesis using SuperScript VILO cDNA Synthesis kit (Invitrogen, Waltham, MA, USA) and amplification using Ion AmpliSeq gene expression core panel primers. The prepared library was purified using Agencourt AMPure XP beads (Beckman Coulter, California, USA) and quantified using Ion Library TaqMan™ Quantitation Kit (Applied Biosystems, Waltham, MA, USA). The libraries were further diluted to […] and pooled equally with four individual samples per pool. The pooled libraries were amplified using emulsion PCR on Ion OneTouch™ 2 instrument (OT2) and the enrichment was performed on Ion OneTouch™ ES following the manufacturer's instruction. Thus, prepared template libraries were then sequenced with Ion S5 XL Semiconductor sequencer using the Ion 540™ Chip. RNA-seq data were analyzed using Ion Torrent Software Suite version 5.4 and the alignment was carried out using modifications of the Torrent Mapping Alignment Program (TMAP) optimizing it for aligning the raw sequencing reads against reference sequence derived from hgl9 (GRCh37) assembly. The specificity and sensitivity was maintained by implementing a two-stage mapping approach by employing BWA-short, BWA-long, SSAHA [31], Super-maximal Exact Matching and Smith Waterman algorithm for optimal mapping. Raw read counts of the targeted genes were performed using Samtools (Samtools view —c -F 4-L bed_file bam_file) and the number of expressed transcripts was confirmed after Fragments Per Kilobase Million (FPKM) normalisation. Differentially expressed gene (DEG) analysis was performed using a script written in R programming language (version 3.6.3) with function calls to DESeq2 package from Bioconductor library sets. Raw read counts from RNASeq were normalized using quantile normalization. All counts ranked “0” were excluded. Differentially expressed genes between the two set of cell lines [HH33-treated (n=3), and untreated (n=3)] were assessed using 2 tailed t-test. Differentially expressed genes with p-value of <0.05, adjusted p-value<0.8 and 5-fold difference were included for pathway analysis using Metascape.

HCT116 = test: Cell cycle analysis by flow cytometry, HCT116; conditions: 1 μM, peak at 8 hours, Control 27.4%
Description: (§1) The effect of the HH32 and HH33 compounds on the distribution of cell cycle at different time points (2, 4, 8, 24, 48, and 72 hours) was analyzed using flow cytometry. Briefly, the cells were harvested and fixed in 70% ethanol for 24 hours at −20° C. The fixed cells were treated with RNAase […] (Sigma Aldrich, Missouri, USA) and stained with propidium iodide […] (Sigma Aldrich, Missouri, USA). The data were acquired using BD Accuri C6 flow cytometer (Becton Dickenson, San Jose, CA, USA) and analysis was done using Flow Jo software (Tree Star, Inc, Ashland, OR, USA).

HeLa cells = test: Cell cycle analysis by flow cytometry, HeLa; conditions: 1 μM, peak at 24 hours, Control 36.9%
Description: as §1

MCF7 = test: Cell cycle analysis by flow cytometry, MCF7; conditions: 1 μM, up to 72 hours, Control 11.3%
Description: as §1

A549 = test: Cell cycle analysis by flow cytometry, A549; conditions: 1 μM, up to 72 hours, Control 8.5%
Description: as §1

[2] = test system: CDK4 knockout HCT116 cells; test: Sensitivity and cell cycle of CDK4 knockout versus wild-type HCT116
Description: CRISPR-Cas9 was employed to stablish HCT116 CDK4 KO cells. Ribonucleotide protein (RNP) delivery system for CRISPR technique was utilized. All the reagents were purchased for Thermoscientific company, USA. gRNA was used to target CDK4 genes. Lipofectamine™ CRISPRMAX™ Cas9 Transfection Reagent was used to transfect the cells with the gRNA and Cas9. The genomic cleavage efficiency was assessed by immunoblotting, while a scrambled gRNA, Trueguide gRNA Negative control, was used as a negative control in all the steps to ensure the specificity of the target. […] To generate isolated clones with complete knockout, the mixed pool of cells was diluted 1 cell/[…] liquid medium and then dispersed into 96 wells plate. The individual cells were left to form clones. […]
The cytotoxic effects of HH32 and HH33 compounds were evaluated at various concentrations ranging from 0.0001 to 100 μM by sulphrhodamine-B (SRB) assay as described previously. The anti-proliferative activity was expressed as growth inhibitory concentration (IC50) values, which were calculated by the sigmoidal dose-response curve fitting method using Graph pad prism 6 software (GraphPad Software, San Diego, CA, USA).
The effect of the HH32 and HH33 compounds on the distribution of cell cycle at different time points (2, 4, 8, 24, 48, and 72 hours) was analyzed using flow cytometry. […]

MCF7 cells [3] = test: Transcriptomic analysis of HH33-treated MCF7 cells; conditions: confirmed by quantitative RT-PCR
[4] = H33-treated vs DMSO-treated, DNA repair pathways

## COC(=O)c1cc(NC2=NC(=O)C(=Cc3ccc(N(C)C)cc3)S2)ccc1OC(C)=O [HH33, Methyl 2-acetoxy-5-[(5-(4-dimethylaminobenzylidene)-4 (H)-oxo-1,3-thiazol-2-yl)-amino]benzoate]
MCF7 cells [1]; [4]
  Fold change (H_Mean/D_Mean) CDC45: 0.1426
  Fold change (H_Mean/D_Mean) CHAF1B: 0.5251
  Fold change (H_Mean/D_Mean) DDX11: 0.4961
  Fold change (H_Mean/D_Mean) ESCO2: 0.2719
  Fold change (H_Mean/D_Mean) GTF2H2C: 0.2907
  Fold change (H_Mean/D_Mean) MCM6: 0.4195
  Fold change (H_Mean/D_Mean) MMS22L: 0.2144
  Fold change (H_Mean/D_Mean) PIAS4: 0.6961
  Fold change (H_Mean/D_Mean) POLA1: 0.196
  Fold change (H_Mean/D_Mean) RAD17: 0.3003
  Fold change (H_Mean/D_Mean) RAD51: 0.2505
  Fold change (H_Mean/D_Mean) RAD51AP1: 0.2877
  Fold change (H_Mean/D_Mean) RECQL: 0.212
  Fold change (H_Mean/D_Mean) RIF1: 0.3166
  Fold change (H_Mean/D_Mean) RNF111: 0.5331
  Fold change (H_Mean/D_Mean) RNF168: 0.2605
  Fold change (H_Mean/D_Mean) TRIP13: 0.4436
  Fold change (H_Mean/D_Mean) UBE2N: 0.3688
  Fold change (H_Mean/D_Mean) UBE2W: 0.224
  Fold change (H_Mean/D_Mean) ZSWIM7: 0.3144
MCF7 cells [1]; hypergeometric test
  pathways related to DNA repair and cell cycle progression: down-regulation
HCT116
  G2/M phase accumulation: 77.4%
HeLa cells
  G2/M phase accumulation: 93.9%
MCF7
  G2/M cell cycle arrest: 57.7%
A549
  G2/M cell cycle arrest: 45.1%
[2]
  sensitivity and cell cycle distribution, wild-type versus CDK4 knockout cells: no difference
MCF7 cells [3]
  six shared genes (ATAD2, CDCA3, FAMIIIB, CDKN3, HISTIH2AH, MIS18BP1): maximally downregulated
